Data on 23 molecules can be found in article PMC4980666, “N-acylhydrazone inhibitors of influenza virus PA endonuclease with versatile metal binding modes” (Scientific Reports, 2016).

Molecules are shown by their SMILES. pEC50: −log10 of the molar value.

The nature of data set [1]: in vitro. Conditions: human, vRNP reconstitution assay Cytotoxicity CC50.
Data set [2] addresses influenza virus vRNPs reconstituted in HEK293T cells (Influenza A virus, UniProt P03433). Description: vRNP reconstitution assay in HEK293T cells. The data set is classed as cell-based. Conditions: for pEC50: read-out: vRNP reconstitution assay Activity EC50; for selectivity index (ratio of CC50 to EC50): vRNP assay, HEK293T.
Data set [3] can be described thus: in vitro. Conditions: dog.
For data set [4], the system named is influenza A virus (strain A/PR/8/34). Description: microbe, parasite or virus in culture. The note with it: MDCK cells; for EC90 / EC99: Influenza A virus, PR/8, 24 h, qPCR; for EC90: 1-log10 reduction in virus titer, read-out: Virus yield assay Antiviral activity EC90; for EC99: 2-log10 reduction in virus titer, read-out: Virus yield assay Antiviral activity EC99. The data set is classed as cell-based. In general terms: Real-time PCR tracks product formation cycle by cycle.

In “in vitro [1]”, `NC(=O)N/N=C/c1cccc(O)c1O` [Compound 1, N’-(2,3-dihydroxybenzylidene)-semicarbazide] registered a CC50 at 24 h above 200 µM. Besides, the pEC50 (as a rule, the negative decadic logarithm of the EC50, by convention in mol/L) in data set [2] was 3.97.
Taken in the same sequence, the figures for `COc1cccc(/C=N/NC(N)=O)c1O` [Compound 2] were above 200 µM and below 4.00.
In the data set “in vitro [1]”, `CCCCCCCC(=O)N/N=C/c1cccc(O)c1O` [Compound 3] showed a CC50 at 24 h below 50 µM. The molecule further yielded a CC50 at 24 h in the data set “in vitro [3]” above 200 µM. Also, in data set [2], the pEC50 is 5.23 and the “selectivity index (ratio of CC50 to EC50)” value is listed as “below 8”.
Turning to `CCCCCCCC(=O)N/N=C/c1cccc(OC)c1O` [Compound 4], in the data set “in vitro [1]”, the CC50 at 24 h was below 50 µM. Besides, the CC50 at 24 h in “in vitro [3]” was above 200 µM. For the same molecule, in data set [2], the pEC50 was 5.20 and the “selectivity index (ratio of CC50 to EC50)” value was “below 8”.
Turning to `O=C(N/N=C/c1cccc(O)c1O)c1ccccc1` [Compound 5], in data set [4], the EC90 (commonly the concentration needed for an effect of 90%) was above 25 µM and the EC99 (in general, the point of the concentration-response curve where the effect stands at 99%) is above 25 µM. This molecule displayed a CC50 at 24 h in the data set “in vitro [3]” of at least 146 µM. In data set [2], the pEC50 was 5.59 and the “selectivity index (ratio of CC50 to EC50)” value was “below 8”.
Consider `COc1cccc(/C=N/NC(=O)c2ccccc2)c1O` [Compound 6], for which, in data set [4], the EC90 was above 50 µM and the EC99 was above 50 µM. This molecule also registered a CC50 at 24 h in “in vitro [3]” above 200 µM. In addition, in data set [2], the pEC50 was 4.82 and the “selectivity index (ratio of CC50 to EC50)” value is given as “below 8”.
With `O=C(N/N=C/c1cccc(O)c1O)c1ccccc1O` [Compound 7], in data set [4], the EC90 turned out to be 100 µM; the EC99 stood at 172 µM; the “SI (selectivity index, ratio between CC50 and EC90)” value is recorded as above 2.0. In the data set “in vitro [3]”, this molecule displayed a CC50 at 24 h above 200 µM. Further, in data set [2], the “difference between EC50 in the vRNP assay and EC90 in the virus yield assay” value (shortened to “difference between EC50”) was at least 8 fold; the pEC50 is 5.49; the “selectivity index (ratio of CC50 to EC50)” value is on record as “below 8”.
`COc1cccc(/C=N/NC(=O)c2ccccc2O)c1O` [Compound 8]: in data set [4], the EC90 is above 12.5 µM and the EC99 is above 12.5 µM. In addition, the CC50 at 24 h in “in vitro [3]” is above 200 µM. In addition, in data set [2], the negative-log EC50 (pEC50) was 5.72 and the “selectivity index (ratio of CC50 to EC50)” value is “below 8”.
With `O=C(N/N=C/c1cc(O)c(O)cc1O)c1ccccc1O` [Compound 9], the CC50 at 24 h in the data set “in vitro [1]” was above 200 µM. In data set [4], the EC90 was determined as 5.3 µM; the EC99 amounted to 16 µM; the “SI (selectivity index, ratio between CC50 and EC90)” value is on record as above 38. The CC50 at 24 h in “in vitro [3]” was above 200 µM. The pEC50 in data set [2] was 5.26.
As for `O=C(N/N=C/c1c(O)cc(O)cc1O)c1ccccc1O` [Compound 10], the CC50 at 24 h in the data set “in vitro [1]” was 132 µM. In data set [4], the concentration for an effect of 90% (EC90) worked out at 8.5 µM and the EC99 was 14 µM. For the same molecule, the CC50 at 24 h in the data set “in vitro [3]” is 111 µM. In data set [2], the “difference between EC50” value is at least 8 fold; the pEC50 is 6.40.
In the data set “in vitro [1]”, `O=C(N/N=C/c1cc(O)c(O)c(O)c1)c1ccccc1O` [Compound 11] returned a CC50 at 24 h above 200 µM. In addition, in data set [4], the EC90 amounted to 12 µM; the 99% effect concentration (EC99) was 30 µM; the “SI (selectivity index, ratio between CC50 and EC90)” value was above 17. Further, in the data set “in vitro [3]”, the CC50 at 24 h is above 200 µM. For the same molecule, the pEC50 in data set [2] was 5.25.
The molecule `COc1cc(C(=O)N/N=C/c2cc(O)ccc2O)cc(OC)c1OC` [Compound 12] came in with a CC50 at 24 h in “in vitro [1]” of 39 µM. Besides, in data set [4], the concentration for an effect of 90% (EC90) was above 12.5 µM and the EC99 is above 12.5 µM. The CC50 at 24 h in “in vitro [3]” was above 200 µM. Further, the pEC50 in data set [2] is 4.70.
`O=C(N/N=C/c1ccccc1)c1cc(O)c(O)c(O)c1` [Compound 13] showed a CC50 at 24 h in “in vitro [1]” above 200 µM. Also, in data set [4], the EC90 was 34 µM; the EC99 is 71 µM; the “SI (selectivity index, ratio between CC50 and EC90)” value was above 5.9. The CC50 at 24 h in the data set “in vitro [3]” is above 200 µM. Further, in data set [2], the pEC50 is 5.20.
The molecule `O=C(N/N=C/c1ccccc1O)c1cc(O)c(O)c(O)c1` [Compound 14] registered a CC50 at 24 h in “in vitro [1]” above 200 µM. Also, in data set [4], the EC90 was 37 µM; the EC99 is 63 µM; the “SI (selectivity index, ratio between CC50 and EC90)” value was above 5.4. The molecule further came in with a CC50 at 24 h in “in vitro [3]” above 200 µM. Further, in data set [2], the “difference between EC50” value is listed as at least 8 fold; the pEC50 was 5.64.
In “in vitro [1]”, `O=C(N/N=C/c1cc(O)ccc1O)c1cc(O)c(O)c(O)c1` [Compound 15] returned a CC50 at 24 h above 200 µM. In data set [4], the EC90 came to 7.5 µM; the EC99 amounted to 18 µM; the “SI (selectivity index, ratio between CC50 and EC90)” value is listed as at least 23. In addition, the CC50 at 24 h in “in vitro [3]” is at least 172 µM. In addition, the pEC50 in data set [2] is 4.85.
Turning to `COc1ccc(O)c(/C=N/NC(=O)c2cc(O)c(O)c(O)c2)c1` [Compound 16], in “in vitro [1]”, the CC50 at 24 h was above 200 µM. Further, in data set [4], the EC90 was 28 µM; the EC99 stood at 67 µM; the “SI (selectivity index, ratio between CC50 and EC90)” value is reported as above 7.1. In addition, the CC50 at 24 h in “in vitro [3]” is above 200 µM. For the same molecule, the pEC50 in data set [2] was 5.28.
Take `O=C(N/N=C/c1ccc(O)cc1O)c1cc(O)c(O)c(O)c1` [Compound 17]: in the data set “in vitro [1]”, the CC50 at 24 h was above 200 µM. Also, in data set [4], the EC90 was determined as 8.1 µM; the EC99 turned out to be 21 µM; the “SI (selectivity index, ratio between CC50 and EC90)” value is reported as above 25. In the data set “in vitro [3]”, this molecule displayed a CC50 at 24 h above 200 µM. The pEC50 in data set [2] was 5.15.
With `O=C(N/N=C/c1ccc(O)c(O)c1O)c1cc(O)c(O)c(O)c1` [Compound 20], the CC50 at 24 h in “in vitro [1]” was above 200 µM. Also, in data set [4], the EC90 came out at 11 µM; the concentration for an effect of 99% (EC99) turned out to be 35 µM; the “SI (selectivity index, ratio between CC50 and EC90)” value is listed as above 18. Besides, the CC50 at 24 h in the data set “in vitro [3]” is above 200 µM. Further, the pEC50 in data set [2] was 5.66.
`O=C(N/N=C/c1cc(O)c(O)cc1O)c1cc(O)c(O)c(O)c1` [Compound 21] displayed a CC50 at 24 h in “in vitro [1]” above 200 µM. In data set [4], the EC90 stood at 3.6 µM; the EC99 turned out to be 8.3 µM; the “SI (selectivity index, ratio between CC50 and EC90)” value is on record as above 56. Moreover, in “in vitro [3]”, the CC50 at 24 h was above 200 µM. Moreover, the pEC50 in data set [2] is 5.60.
Regarding `O=C(N/N=C/c1c(O)cc(O)cc1O)c1cc(O)c(O)c(O)c1` [Compound 22], the CC50 at 24 h in “in vitro [1]” is above 200 µM. Further, in data set [4], the EC90 stood at 3.4 µM; the EC99 worked out at 7.4 µM; the “SI (selectivity index, ratio between CC50 and EC90)” value is given as above 59. The molecule further showed a CC50 at 24 h in the data set “in vitro [3]” above 200 µM. Besides, in data set [2], the “difference between EC50” value is on record as at least 8 fold; the pEC50 is 6.38.
Take `O=C(N/N=C/c1cc(O)c(O)c(O)c1)c1cc(O)c(O)c(O)c1` [Compound 23]: in the data set “in vitro [1]”, the CC50 at 24 h is above 200 µM. In data set [4], the EC90 was 3.5 µM; the EC99 turned out to be 11 µM; the “SI (selectivity index, ratio between CC50 and EC90)” value is reported as above 57. The CC50 at 24 h in “in vitro [3]” was above 200 µM. In addition, the pEC50 in data set [2] is 5.51.
`O=C(N/N=C/c1ccccn1)c1cc(O)c(O)c(O)c1` [Compound 24] had a CC50 at 24 h in the data set “in vitro [1]” above 200 µM. In data set [4], the EC90 turned out to be 26 µM; the EC99 was 58 µM; the “SI (selectivity index, ratio between CC50 and EC90)” value is recorded as above 7.7. This molecule returned a CC50 at 24 h in “in vitro [3]” above 200 µM. Further, the negative logarithm of the EC50 (pEC50) in data set [2] is 4.60.
Molecule `NC(=O)N/N=C/c1cc(O)c(O)c(O)c1` [Compound 27] registered a CC50 at 24 h in the data set “in vitro [1]” above 200 µM. Besides, in data set [2], the pEC50 is 4.68.
